# pIC50: −log10 of the molar value.
# Experiments:
# Homo sapiens [1] = species: Homo sapiens; test: Selectivity index, ratio of IC50 for human WI-38 cells to IC50 for human SK-OV-3 cells
# Pseudomonas aeruginosa [2] = test: Antimicrobial activity against Pseudomonas aeruginosa ATCC 9027 by serial microdilution method; assay type: functional
# M-HeLa = test: Cytotoxicity against human HelaM cells assessed as number of viable cells measured after 48 hrs by MTT based colorimetric assay; assay type: functional, cell-based
# MCF7 = test: Cytotoxicity against human MCF7 cells assessed as number of viable cells measured after 48 hrs by MTT based colorimetric assay; assay type: functional, cell-based; conditions: MCF7, 48 h
# HuTu80 [3] = test: Cytotoxicity against human HuTu80 cells assessed as number of viable cells measured after 48 hrs by MTT based colorimetric assay; assay type: functional, cell-based; conditions: HuTu80, 48 h
# PANC-1 = test: Cytotoxicity against human PANC-1 cells assessed as number of viable cells measured after 48 hrs by MTT based colorimetric assay; assay type: functional, cell-based; conditions: PANC-1, 48 h
# A549 = test: Cytotoxicity against human A549 cells assessed as number of viable cells measured after 48 hrs by MTT based colorimetric assay; assay type: functional, cell-based; conditions: A549, 48 h
# PC-3 = test: Cytotoxicity against human PC-3 cells assessed as number of viable cells measured after 48 hrs by MTT based colorimetric assay; assay type: functional, cell-based; conditions: PC-3, 48 h
# T98G = test: Cytotoxicity against human T98G cells assessed as number of viable cells measured after 48 hrs by MTT based colorimetric assay; assay type: functional, cell-based
# HepG2 = test: Cytotoxicity against human HepG2 cells assessed as number of viable cells measured after 48 hrs by MTT based colorimetric assay; assay type: functional, cell-based; conditions: HepG2, 48 h
# SK-OV-3 = test: Cytotoxicity against human SK-OV-3 cells assessed as number of viable cells measured after 48 hrs by MTT based colorimetric assay; assay type: functional, cell-based; conditions: SK-OV-3, 48 h
# DU-145 = test: Cytotoxicity against human DU-145 cells assessed as number of viable cells measured after 48 hrs by MTT based colorimetric assay; assay type: functional, cell-based; conditions: DU-145, 48 h
# [4] = Cytotoxicity against human WI-38 cells assessed as number of viable cells measured after 48 hrs by MTT based colorimetric assay; assay type: toxicity, cell-based
# [5] = Cytotoxicity against human Chang liver cells assessed as number of viable cells measured after 48 hrs by MTT based colorimetric assay; assay type: toxicity, cell-based
# [6] = Selectivity index, ratio of IC50 for human WI-38 cells to IC50 for human MCF7 cells; assay type: toxicity; conditions: WI-38 cells and MCF7 cells, read-out: Ratio IC50
# Homo sapiens [7] = species: Homo sapiens; test: Selectivity index, ratio of IC50 for human WI-38 cells to IC50 for human HuTu80 cells
# Homo sapiens [8] = species: Homo sapiens; test: Selectivity index, ratio of IC50 for human WI-38 cells to IC50 for human PANC-1 cells
# [9] = Selectivity index, ratio of IC50 for human WI-38 cells to IC50 for human PC-3 cells; assay type: toxicity; conditions: WI-38 cells and PC-3 cells, read-out: Ratio IC50
# [10] = Selectivity index, ratio of IC50 for human WI-38 cells to IC50 for human HepG2 cells; assay type: toxicity; conditions: WI-38 cells and HepG2 cells, read-out: Ratio IC50
# Homo sapiens [11] = species: Homo sapiens; test: Selectivity index, ratio of IC50 for human WI-38 cells to IC50 for human DU-145 cells
# Staphylococcus aureus [12] = test: Antimicrobial activity against Staphylococcus aureus ATCC 6538 P FDA 209P by serial microdilution method; assay type: functional
# Bacillus cereus [13] = test: Antimicrobial activity against Bacillus cereus ATCC 10702 NCTC 8035 by serial microdilution method; assay type: functional
# Enterococcus faecalis [14] = test: Antimicrobial activity against Enterococcus faecalis ATCC 29212 by serial microdilution method; assay type: functional
# Escherichia coli [15] = test: Antimicrobial activity against Escherichia coli ATCC 25922 by serial microdilution method; assay type: functional
# Staphylococcus aureus [16] = test: Bactericidal against Staphylococcus aureus ATCC 6538 P FDA 209P by serial microdilution method; assay type: functional
# Enterococcus faecalis [17] = test: Bactericidal activity against Enterococcus faecalis ATCC 29212 by serial microdilution method; assay type: functional
# Escherichia coli [18] = test: Bactericidal activity against Escherichia coli ATCC 25922 by serial microdilution method; assay type: functional
# Pseudomonas aeruginosa [19] = test: Bactericidal against Pseudomonas aeruginosa ATCC 9027 by serial microdilution method; assay type: functional
# [20] = Selectivity index, ratio of IC50 for human WI-38 cells to IC50 for human T98G cells; assay type: toxicity; conditions: WI-38 cells and T98G cells, read-out: Ratio IC50
# HuTu80 [21] = test: Induction of apoptosis in human HuTu80 cells assessed as viable cells at 1 uM incubated for 48 hrs by annexin V FITC/propidium iodide staining based flow cytometry analysis (reference value: 93.71%); assay type: functional; conditions: read-out: Activity
# HuTu80 [22] = test: Induction of apoptosis in human HuTu80 cells assessed as viable cells at 2 uM incubated for 48 hrs by annexin V FITC/propidium iodide staining based flow cytometry analysis (reference value: 93.71%); assay type: functional; conditions: read-out: Activity
# HuTu80 [23] = test: Induction of apoptosis in human HuTu80 cells assessed as early apoptotic cells at 1 uM incubated for 48 hrs by annexin V FITC/propidium iodide staining based flow cytometry analysis (reference value: 1.74%); assay type: functional
# HuTu80 [24] = test: Induction of apoptosis in human HuTu80 cells assessed as early apoptotic cells at 2 uM incubated for 48 hrs by annexin V FITC/propidium iodide staining based flow cytometry analysis (reference value: 1.74%); assay type: functional
# HuTu80 [25] = test: Induction of apoptosis in human HuTu80 cells assessed as late apoptotic cells at 1 uM incubated for 48 hrs by annexin V FITC/propidium iodide staining based flow cytometry analysis (reference value: 0.00%); assay type: functional
# HuTu80 [26] = test: Induction of apoptosis in human HuTu80 cells assessed as late apoptotic cells at 2 uM incubated for 48 hrs by annexin V FITC/propidium iodide staining based flow cytometry analysis (reference value: 0.00%); assay type: functional
# HuTu80 [27] = test: Induction of apoptosis in human HuTu80 cells assessed as necrotic cells at 1 uM incubated for 48 hrs by annexin V FITC/propidium iodide staining based flow cytometry analysis (reference value: 4.56%); assay type: functional
# HuTu80 [28] = test: Induction of apoptosis in human HuTu80 cells assessed as necrotic cells at 2 uM incubated for 48 hrs by annexin V FITC/propidium iodide staining based flow cytometry analysis (reference value: 4.56%); assay type: functional
# HuTu80 [29] = test: Induction of cell cycle arrest in human HuTu80 cells assessed as accumulation of cell at G1/G0 phase at 1 uM measured after 48 hrs by propidium iodide staining based analysis (reference value: 72%); assay type: functional
# HuTu80 [30] = test: Induction of cell cycle arrest in human HuTu80 cells assessed as accumulation of cell at G1/G0 phase at 2 uM measured after 48 hrs by propidium iodide staining based analysis (reference value: 72%); assay type: functional
# HuTu80 [31] = test: Induction of cell cycle arrest in human HuTu80 cells assessed as accumulation of cell at G2/M phase at 1 uM measured after 48 hrs by propidium iodide staining based analysis (reference value: 18.7%); assay type: functional
# HuTu80 [32] = test: Induction of cell cycle arrest in human HuTu80 cells assessed as accumulation of cell at G2/M phase at 2 uM measured after 48 hrs by propidium iodide staining based analysis (reference value: 18.7%); assay type: functional
# HuTu80 [33] = test: Induction of cell cycle arrest in human HuTu80 cells assessed as accumulation of cell at S phase at 1 uM measured after 48 hrs by propidium iodide staining based analysis (reference value: 8.1%); assay type: functional
# HuTu80 [34] = test: Induction of cell cycle arrest in human HuTu80 cells assessed as accumulation of cell at S phase at 2 uM measured after 48 hrs by propidium iodide staining based analysis (reference value: 8.1%); assay type: functional
# HuTu80 [35] = test: Induction of ROS production in human HuTu80 cells assessed as increase in fluorescence intensity at 5 uM measured after 48 hrs by flow cytometry based analysis (reference value: 380); assay type: functional
# HuTu80 [36] = test: Induction of ROS production in human HuTu80 cells assessed as increase in fluorescence intensity at 10 uM measured after 48 hrs by flow cytometry based analysis (reference value: 380); assay type: functional
# HuTu80 [37] = test: Induction of mitochondrial membrane potential loss in human HuTu80 cells assessed as J-monomer green fluorescence intensity at 5 uM incubated for 24 hrs by JC10 staining based flow cytometry method (reference value: 5.7%); assay type: functional
# HuTu80 [38] = test: Induction of mitochondrial membrane potential loss in human HuTu80 cells assessed as J-monomer green fluorescence intensity at 10 uM incubated for 24 hrs by JC10 staining based flow cytometry method (reference value: 5.7%); assay type: functional
# HuTu80 [39] = test: Induction of mitochondrial membrane potential loss in human HuTu80 cells assessed as J-aggregates red fluorescence intensity at 5 uM incubated for 24 hrs by JC10 staining based flow cytometry method (reference value: 94.4%); assay type: functional
# HuTu80 [40] = test: Induction of mitochondrial membrane potential loss in human HuTu80 cells assessed as J-aggregates red fluorescence intensity at 10 uM incubated for 24 hrs by JC10 staining based flow cytometry method (reference value: 94.4%); assay type: functional
# Bacillus cereus [41] = test: Bactericidal activity against Bacillus cereus ATCC 10702 NCTC 8035 by serial microdilution method; assay type: functional
# [42] = Selectivity index, ratio of IC50 for human WI-38 cells to IC50 for human A549 cells; assay type: toxicity; conditions: WI-38 cells and A549 cells, read-out: Ratio IC50
smiles,measurement,setting,value
CC(C)C1=CC2=CC[C@@H]3[C@](C)(CCC[C@@]3(C)C(=O)OCC(O)COC(=O)CCCC[P+](c3ccccc3)(c3ccccc3)c3ccccc3)[C@H]2CC1 (stereo partly specified),Ratio IC50,Homo sapiens [1],1.7
same,MIC,Pseudomonas aeruginosa [2],250 µM
same,pIC50,M-HeLa,4.56
same,pIC50,MCF7,4.90
same,pIC50,HuTu80 [3],5.66
same,pIC50,PANC-1,4.88
same,pIC50,A549,4.58
same,pIC50,PC-3,4.96
same,pIC50,T98G,5.01
same,pIC50,HepG2,4.67
same,pIC50,SK-OV-3,4.84
same,pIC50,DU-145,5.55
same,IC50 at 48 h,[4],24.2 µM
same,IC50 at 48 h,[5],6 µM
same,selectivity ratio,[6],1.9
same,Ratio IC50,Homo sapiens [7],11
same,Ratio IC50,Homo sapiens [8],1.8
same,selectivity ratio,[9],2.2
same,selectivity ratio,[10],1.1
same,Ratio IC50,Homo sapiens [11],8.6
same,MIC,Staphylococcus aureus [12],31.3 µM
same,MIC,Bacillus cereus [13],3.9 µM
same,MIC,Enterococcus faecalis [14],7.8 µM
same,MIC,Escherichia coli [15],250 µM
same,MBC,Staphylococcus aureus [16],250 µM
same,MBC,Enterococcus faecalis [17],250 µM
same,MBC,Escherichia coli [18],500 µM
same,MBC,Pseudomonas aeruginosa [19],500 µM
C=C(C)[C@@H]1CC[C@]2(COC(=O)CCC(=O)OC(COC(=O)CCCCCCC/C=C\CCCCCCCC)COC(=O)CCCC[P+](c3ccccc3)(c3ccccc3)c3ccccc3)CC[C@]3(C)[C@H](CC[C@@H]4[C@@]5(C)CC[C@H](O)C(C)(C)[C@@H]5CC[C@]43C)[C@@H]12.[Br-] (stereo partly specified),pIC50,M-HeLa,4.29
same,pIC50,MCF7,4.79
same,pIC50,HuTu80 [3],5.77
same,pIC50,PANC-1,4.45
same,pIC50,A549,4.27
same,pIC50,PC-3,4.49
same,pIC50,T98G,4.66
same,pIC50,HepG2,4.22
same,pIC50,SK-OV-3,4.24
same,pIC50,DU-145,4.81
same,IC50 at 48 h,[4],36.3 µM
same,IC50 at 48 h,[5],11.2 µM
same,selectivity ratio,[6],2.2
same,Ratio IC50,Homo sapiens [7],21.4
same,selectivity ratio,[9],1.1
same,selectivity ratio,[20],1.7
same,Ratio IC50,Homo sapiens [11],2.3
same,viability at 1 µM,HuTu80 [21],76.1%
same,viability at 2 µM,HuTu80 [22],51%
same,Activity,HuTu80 [23],1.29%
same,Activity,HuTu80 [24],2.5%
same,Activity,HuTu80 [25],4.58%
same,Activity,HuTu80 [26],12%
same,Activity,HuTu80 [27],18.03%
same,Activity,HuTu80 [28],34.5%
same,Activity,HuTu80 [29],84%
same,Activity,HuTu80 [30],87%
same,Activity,HuTu80 [31],2.8%
same,Activity,HuTu80 [32],1.8%
same,Activity,HuTu80 [33],2.8%
same,Activity,HuTu80 [34],1.9%
same,Flu intensity,HuTu80 [35],500
same,Flu intensity,HuTu80 [36],840
same,Activity,HuTu80 [37],15.9%
same,Activity,HuTu80 [38],9.7%
same,Activity,HuTu80 [39],84.2%
same,Activity,HuTu80 [40],90.3%
same,MIC,Staphylococcus aureus [12],31.3 µM
same,MIC,Bacillus cereus [13],15.6 µM
same,MIC,Enterococcus faecalis [14],125 µM
same,MBC,Staphylococcus aureus [16],125 µM
same,MBC,Bacillus cereus [41],125 µM
C=C(C)[C@@H]1CC[C@]2(COCC(O)COC(=O)CCCC[P+](c3ccccc3)(c3ccccc3)c3ccccc3)CC[C@]3(C)[C@H](CC[C@@H]4[C@@]5(C)CC[C@H](O)C(C)(C)[C@@H]5CC[C@]43C)[C@@H]12 (stereo partly specified),pIC50,M-HeLa,4.94
same,pIC50,MCF7,5.82
same,pIC50,HuTu80 [3],6.52
same,pIC50,A549,5.51
same,pIC50,PC-3,5.10
same,pIC50,T98G,5.39
same,IC50 at 48 h,[4],4.7 µM
same,selectivity ratio,[6],3.1
same,Ratio IC50,Homo sapiens [7],15.7
same,selectivity ratio,[42],1.5
same,selectivity ratio,[20],1.1
